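Each compound was tested at five concentrations against cells in 96-well plates for 48 hours. The concentration for 50% growth inhibition is given as GI50.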 Activity calls are given as the source filed them. Cut-off read from the data, not from the text of the source: active = GI50 up to about 1.1 µM and inactive = higher.
Experiments:
Assay in all cases: DTP human tumour cell line panel, 48 h
DU-145 = system: DU-145
NCI-H23 = system: NCI-H23
MDA-N = system: MDA-N
ACHN = system: ACHN
NCI-H460 = system: NCI-H460
786-0 = system: 786-0
K562 = system: K562
SN12C = system: SN12C
OVCAR-8 = system: OVCAR-8
T47D = system: T47D
CCRF-CEM = system: CCRF-CEM
SNB-19 = system: SNB-19
NCI-H226 = system: NCI-H226
SF-268 = system: SF-268
SK-MEL-28 = system: SK-MEL-28
RXF 393 = system: RXF 393
UACC-257 = system: UACC-257
A498 = system: A498
SNB-75 = system: SNB-75
RPMI-8226 = system: RPMI-8226

Measured: GI50

Cc1ccc2c(c1)S(=O)(=O)c1ccc3ccccc3c1N2
inactive: DU-145 > 100 µM | NCI-H23 > 100 µM | MDA-N > 100 µM | ACHN > 100 µM | NCI-H460 > 100 µM | 786-0 > 100 µM | K562 > 100 µM | SN12C > 100 µM | OVCAR-8 > 100 µM | T47D > 100 µM | CCRF-CEM > 100 µM | SNB-19 > 100 µM | NCI-H226 > 100 µM | SF-268 > 100 µM | SK-MEL-28 > 100 µM | RXF 393 > 100 µM | UACC-257 > 100 µM | A498 > 100 µM

C1=CC2=CC=CC3c4nc5ccc6ccccc6c5nc4C(=C1)C23 (stereo not drawn)
inactive: DU-145 > 100 µM | NCI-H23 > 100 µM | MDA-N > 100 µM | ACHN > 100 µM | NCI-H460 > 100 µM | 786-0 > 100 µM | K562 > 100 µM | SNB-75 > 100 µM | SN12C > 100 µM | OVCAR-8 > 100 µM | T47D > 100 µM | CCRF-CEM > 100 µM | SNB-19 > 100 µM | NCI-H226 > 100 µM | SF-268 > 100 µM | RPMI-8226 > 100 µM | SK-MEL-28 > 100 µM | RXF 393 > 100 µM | UACC-257 > 100 µM

CCCCCCCCCCCCOCC(COP(=O)(O)OCCN=[N+]=[N-])OC(=O)CCCCCCCCCCC (stereo not drawn)
inactive: DU-145 > 100 µM | NCI-H23 > 100 µM | MDA-N > 100 µM | ACHN > 100 µM | NCI-H460 > 100 µM | 786-0 > 100 µM | K562 > 100 µM | SN12C > 100 µM | OVCAR-8 > 100 µM | T47D > 100 µM | SNB-19 > 100 µM | SF-268 > 100 µM | RPMI-8226 > 100 µM | SK-MEL-28 > 100 µM | RXF 393 > 100 µM | A498 > 100 µM

COc1cc2c(c(O)c1OC)C(=O)[C@@H]1CCC(=O)N1C2
inactive: DU-145 > 100 µM | NCI-H23 > 100 µM | MDA-N > 100 µM | ACHN > 100 µM | NCI-H460 > 100 µM | 786-0 > 100 µM | K562 > 100 µM | SNB-75 > 100 µM | SN12C > 100 µM | OVCAR-8 > 100 µM | T47D > 100 µM | CCRF-CEM > 100 µM | SNB-19 > 100 µM | NCI-H226 > 100 µM | SF-268 > 100 µM | RPMI-8226 > 100 µM | SK-MEL-28 > 100 µM | UACC-257 > 100 µM | A498 > 100 µM

O=C(O)[C@@H]1CCS(=O)(=O)N1
inactive: DU-145 > 100 µM | NCI-H23 > 100 µM | MDA-N > 100 µM | ACHN > 100 µM | NCI-H460 > 100 µM | 786-0 > 100 µM | SN12C > 100 µM | OVCAR-8 > 100 µM | T47D > 100 µM | CCRF-CEM > 100 µM | SNB-19 > 100 µM | SF-268 > 100 µM | SK-MEL-28 > 100 µM | RXF 393 > 100 µM | UACC-257 > 100 µM | A498 > 100 µM

COc1ccc(OC)c(C2Cc3cnc4nc(N)nc(N)c4c3C2)c1 (stereo not drawn)
inactive: DU-145 29.2 µM | NCI-H23 32.2 µM | MDA-N 25.8 µM | ACHN 32.6 µM | NCI-H460 26.5 µM | 786-0 24.2 µM | K562 19.1 µM | SNB-75 17.4 µM | SN12C 21.7 µM | OVCAR-8 26.2 µM | T47D 25 µM | CCRF-CEM 24.4 µM | SNB-19 38.4 µM | SF-268 34.2 µM | RPMI-8226 29.6 µM | SK-MEL-28 33.7 µM | RXF 393 19.9 µM | UACC-257 18.3 µM | A498 16.9 µM

CCCCNC(=O)C1=C(C)NC(C)=C(C(=O)NCCCC)C1
inactive: DU-145 > 100 µM | NCI-H23 > 100 µM | MDA-N > 100 µM | ACHN > 100 µM | NCI-H460 > 100 µM | 786-0 > 100 µM | SNB-75 49.8 µM | SN12C > 100 µM | OVCAR-8 > 100 µM | T47D > 100 µM | SNB-19 > 100 µM | NCI-H226 > 100 µM | SF-268 > 100 µM | SK-MEL-28 > 100 µM | RXF 393 > 100 µM | UACC-257 > 100 µM | A498 > 100 µM

COc1ccc2c(c1)[C@@H]1c3cc(OC)c(OC)cc3CCN1CCC2
inactive: DU-145 > 100 µM | NCI-H23 > 100 µM | MDA-N > 100 µM | ACHN > 100 µM | NCI-H460 31.4 µM | 786-0 > 100 µM | K562 65.3 µM | SNB-75 > 100 µM | SN12C > 100 µM | OVCAR-8 > 100 µM | T47D 31.6 µM | CCRF-CEM 87.7 µM | SNB-19 > 100 µM | SF-268 > 100 µM | RPMI-8226 54.8 µM | SK-MEL-28 > 100 µM | RXF 393 > 100 µM | UACC-257 19.7 µM | A498 > 100 µM

Source: ChEMBL document CHEMBL1201862, “PubChem BioAssay data set” (2004)
